Reference: US11331290B2, “Niclosamide for the treatment of cancer metastasis” (Max-Delbrück-Centrum für Molekulare Medizin in der …, priority 2011, dated 2022)

Legend:
S100A4 mRNA = S100A4 mRNA in spleen tumor of xenograft mice (qRT-PCR); assay type: in vivo; conditions: for S100A4 mRNA level in spleen tumor, mean % of control mice / S100A4 mRNA level in spleen tumor, mean difference control vs niclosamide: day 24
Protocol: All experiments were performed in accordance with the UKCCCR guidelines and approved by the responsible local authorities (State Office of Health and Social Affairs, Berlin, Germany). HCT116-CMVp-LUC cells (3×10^6 cells per mouse, resuspended in 50 μL PBS) were intrasplenically transplanted into 6-week-old female nonobese diabetic-severe combined immunodeficiency (NOD-SCID) mice. Mice were randomly assigned to 3 groups and reatment of mice started 24 hours after cell transplantation. Mice of the control group (n=9) were treated with daily doses of solvent. Mice of the second group (n=9) were daily treated intraperitoneally with 20 mg per kg niclosamide. Mice of the third group (n=9) were treated intraperitoneally with two doses of 15 mg per kg niclosamide per day. The experimental endpoint was reached when mice appeared moribund and/or the spleen tumor was palpable. This was the case with the majority of control mice on day 24. For long-term in vivo experiments mice randomly assigned to 3 groups. Mice of the control group (n=6) were treated intraperitoneally with daily doses of solvent. Mice of the second group (n=6) were daily treated intraperitoneally with 20 mg per kg niclosamide. Mice of the third group (n=6) were daily treated intraperitoneally for 24 days with 20 mg per kg niclosamide and for the residual days with solvent. Mice were killed by cervical dislocation when tumor reached the maximum in accordance with the local authorities.
Spleen (as the transplantation site) and liver (as a metastasis target organ) were removed. The amount of S100A4 mRNA in the tumor was determined by Trizol RNA isolation of tumor cryosections and quantitative real-time RT-PCR. The level of metastasis was evaluated by scoring. For each liver, a score was calculated as the sum of the volumes of the individual metastases. For each metastasis the formula [width2]×length was applied.
(A) In vivo luminescence imaging of metastasis under niclosamide treatment. HCT116-CMVp-LUC cells stably expressing firefly luciferase (LUC) were intrasplenically transplanted into mice (per group n=4) followed by daily intraperitoneal treatment with 20 mg per kg niclosamide. For luminescence imaging, mice were anesthetized at the indicated days and received intraperitoneally D-luciferin. Exposure time for lateral and ventral imaging was 20 seconds per picture. In situ imaging and imaging of isolated organs was performed for 1 second per picture exposure time. Signal intensity of grayscale images (256 scale) were color coded (from low to high signal intensity: blue, green, yellow, red, white) and overlayed with bright field picture. (B) S100A4 mRNA level in spleen tumor of niclosamide-treated xenograft mice. Spleens from mice (per group n=9) were dissected on day 24. Tumor tissue was cryosected for RNA isolation. S100A4 mRNA level was measured by qRT-PCR and expressed as percentage of control mice. Differences were analyzed by two-sided one-way analysis of variance and Bonferroni post hoc multiple comparison test. Bars represent mean±SD. (C) Liver metastases size in niclosamide-treated xenograft mice. Liver was dissected from xenograft mice (per group n=9) intraperitoneally treated twice per day with 15 mg per kg or daily with 20 mg per kg niclosamide for 24 days. Metastasis was quantified by scoring. Data is given as mean±SD.
(A) S100A4 expression in vitro after discontinued niclosamide treatment. HCT116 cells were treated daily with 1 μM niclosamide for three consecutive days, medium was removed on day 4, and S100A4 expression was analyzed 24, 48, and 72 hours after niclosamide removal. S100A4 expression was analyzed by qRT-PCR and immunoblot. (B) Cell migration after discontinued niclosamide treatment. Cell migration rates of HCT116 cells treated as in (A) were determined by Boyden chamber assay. Differences in control vs. treated cells were analyzed by Student's t test. (C) Anchorage-dependent cell proliferation after discontinued niclosamide treatment. […]

HCT116-S100A4 cells = assay: Boyden chamber transwell migration assay; assay type: cell-based, human; conditions: 1 μM, 24 h, statistically not significant
Protocol: (§1) HCT116, SW620, LS174T, SW480 and DLD-1 cells were used in cell migration and invasion analysis performed with Boyden chamber assay. 400 μL containing 2.5×10^5 cells were seeded into each transwell chamber with filter membranes of 12.0 μm pore size (Millipore, Schwalbach, Germany). For invasion filter membranes were coated with 50 μL Matrigel (diluted 1:3 in RPMI-1640; BD Biosciences) 10 minutes before cells were seeded. Fresh medium (600 μL) were added to the bottom chamber and cells were allowed to attach to the insets for 15 hours. Both chambers were treated with 1 μM niclosamide or the respective amount of DMSO and incubated at 37° C. and 5% CO2 in a humidified incubator for 24 hours. Afterwards insets were removed and cells that had migrated through the membrane to the lower chamber were trypsinized and counted in a Neubauer chamber (LO-Laboroptik, Bad Homburg, Germany). Each well was counted ten times. Each migration or invasion experiment was performed in duplicate. The average number of migrated or invaded cells was determined for at least three independent experiments.
(§2) (A) Cell migration of HCT116-vector and HCT116-S100A4 cells exposed to niclosamide treatment. Cells were treated with 1 μM niclosamide for 24 hours and migration rates were measured with Boyden chamber assay. (B) Cell invasion of HCT116-vector and HCT116-S100A4 cells exposed to niclosamide treatment. Cells were treated with 1 μM niclosamide for 24 hours and cell invasion was determined by Boyden chamber assay. (C) Directed migration of HCT116-vector and HCT116-S100A4 cells exposed to niclosamide treatment analyzed by wound healing assay. Wounds of 300 μM width were set in a 60% confluent monolayer of HCT116-vector or HCT116-S100A4 cells on day 1. Cells were treated daily with 1 μM niclosamide for 4 days. Microphotographs of day 4 are presented here with black lines indicating margins of entered wound of day 1; scale bar represents 200 μM. Data represents three independent experiments. (D) Adhesive cell proliferation of HCT116-vector and HCT116-S100A4 cells exposed to niclosamide treatment. Cells were treated daily with 1 μM niclosamide and cell viability was determined with MTT assay. (E) Anchorage-independent cell growth of HCT116-vector and HCT116-S100A4 cells exposed to niclosamide treatment. Cells were plated as single cells into 0.33% (w/v) agarose and treatment (solvent or 1 μM niclosamide) containing medium. After 7 days colonies were visualized by light microscopy at 10× (overview) and 40× (single colony) magnification. (F) Quantification of colonies formed. Number of colonies (of more than 4 cells) was counted and normalized to solvent-treated HCT116-vector cells. Differences of niclosamide vs. solvent-treated cells were analyzed by Student's t test. […]

HCT116-vector cells = assay: Boyden chamber transwell migration assay; assay type: cell-based, human; conditions: 24 h
Protocol: as §1, §2

[1] = 20 mg per kg daily intraperitoneally
[2] = 2×15 mg per kg per day intraperitoneally

O=C(Nc1ccc([N+](=O)[O-])cc1Cl)c1cc(Cl)ccc1O [niclosamide, 2′,5-dichloro-4′-nitrosalicylanilide]
S100A4 mRNA level in spleen tumor, mean % of control mice (S100A4 mRNA; [1]): 67.2%
S100A4 mRNA level in spleen tumor, mean difference control vs niclosamide (S100A4 mRNA; [1]): 32.9%
S100A4 mRNA level in spleen tumor, mean % of control mice (S100A4 mRNA; [2]): 58.4%
S100A4 mRNA level in spleen tumor, mean difference control vs niclosamide (S100A4 mRNA; [2]): 41.7%
S100A4 mRNA level in spleen tumor, mean difference control vs treatment (S100A4 mRNA; continuous treatment): 27%
S100A4 mRNA level in spleen tumor, mean % of control animals (S100A4 mRNA; continuous treatment (20 mg per kg i.p. daily)): 73%
S100A4 mRNA level in spleen tumor, mean difference control vs treatment (S100A4 mRNA; discontinuous treatment): 40.0%
S100A4 mRNA level in spleen tumor, mean % of control animals (S100A4 mRNA; discontinuous treatment (20 mg per kg i.p. for 24 days, then solvent)): 60%
migration rate, mean % (HCT116-S100A4 cells; solvent control 145.0%): 117.0%
migration, mean difference control vs niclosamide (HCT116-S100A4 cells): 28%
migration, mean difference control vs niclosamide (HCT116-vector cells; 1 μM): 57.0%
activity at 1 µM (HCT116-vector cells; Homo sapiens, read-out: number of migrated cells, mean % of control): 43%
